According to PubChem BioAssay AID310 (DTP/NCI, 2004):
Several values for one entry are separate records, joined by “and”; a condition that tells them apart may be missing. Equal entries are not always repeated. Records with an inconclusive call do not appear.

Tested on: C3AKF1 mice, osteogenic sarcoma HE10734 s.c., tumor weight T/C
Experiment: NCI In Vivo Anticancer Drug Screen. Data for tumor model Osteogenic Sarcoma HE 10734 (subcutaneous) in C3AKF1 (CHKRF1) mice
Conditions: endpoint: mean tumor weight, schedule: Q01DX010 (ip), higher = larger tumour
Experimental: The antitumor activity of compounds was measured in mice bearing transplantable tumors. Survival or tumor size were measured and the results are expressed as the measurement made in the treated group (T) divided by the measurement made in the vehicle treated control group (C). The tumor model used in this assay is Osteogenic Sarcoma HE 10734 (subcutaneous) in C3AKF1 (CHKRF1) mice

[1] = dose: 125.0 mg/kg/injection, vehicle: saline
[2] = dose: 250.0 mg/kg/injection, vehicle: saline
[3] = dose: 500.0 mg/kg/injection, vehicle: saline
[4] = dose: 1000.0 mg/kg/injection, vehicle: saline
[5] = dose: 30.0 mg/kg/injection, vehicle: carboxymethylcellulose (CMC)
[6] = dose: 100.0 mg/kg/injection, vehicle: carboxymethylcellulose (CMC)
[7] = dose: 200.0 mg/kg/injection, vehicle: carboxymethylcellulose (CMC)
[8] = dose: 25.0 mg/kg/injection, vehicle: saline
[9] = dose: 50.0 mg/kg/injection, vehicle: saline
[10] = dose: 62.0 mg/kg/injection, vehicle: saline
[11] = dose: 100.0 mg/kg/injection, vehicle: saline
[12] = dose: 300.0 mg/kg/injection, vehicle: saline
[13] = dose: 12.0 mg/kg/injection, vehicle: saline
[14] = dose: 25.0 mg/kg/injection, vehicle: carboxymethylcellulose (CMC)
[15] = dose: 50.0 mg/kg/injection, vehicle: carboxymethylcellulose (CMC)
[16] = dose: 2.5 mg/kg/injection, vehicle: carboxymethylcellulose (CMC)
[17] = dose: 200.0 mg/kg/injection, vehicle: saline

Which T/C (dose: 4.5 mg/kg/injection, vehicle: saline) does the source give for NC(CCSCc1ccc(N(CCCl)CCCl)cc1)C(=O)O (stereo not given) here?
Its T/C is 74 % of control.

What about the T/C (dose: 9.0 mg/kg/injection, vehicle: saline) of the same compound?
The T/C was 105 % of control and 118 % of control.

What about the T/C (dose: 54.0 mg/kg/injection, vehicle: saline) of the same compound?
Its T/C is 39 % of control.

Nc1nc(SCc2ccc([N+](=O)[O-])cc2)c2[nH]cnc2n1 was tested. Which T/C [1] did it give?
The T/C was 86 % of control.

And the T/C [2]?
The T/C was 89 % of control.

And the T/C [3]?
The T/C was 58 % of control.

What about the T/C [4] of the same compound?
The T/C was 59 % of control.

CS(=O)(=O)OCCCCCCCCCOS(C)(=O)=O was tested. Which T/C (dose: 8.0 mg/kg/injection, vehicle: carboxymethylcellulose (CMC)) did it give?
The T/C was 81 % of control.

What about the T/C (dose: 16.0 mg/kg/injection, vehicle: carboxymethylcellulose (CMC)) of the same compound?
Its T/C is 81 % of control.

What about the T/C (dose: 28.0 mg/kg/injection, vehicle: carboxymethylcellulose (CMC)) of the same compound?
Its T/C is 57 % of control.

And the T/C (dose: 55.0 mg/kg/injection, vehicle: carboxymethylcellulose (CMC))?
The T/C was 37 % of control.

What does the source list for O=c1c[n+](-c2ccccc2)[nH]o1?
T/C (dose: 22.5 mg/kg/injection, vehicle: carboxymethylcellulose (CMC)): 87 % of control; T/C (dose: 45.0 mg/kg/injection, vehicle: carboxymethylcellulose (CMC)): 110 % of control; T/C (dose: 90.0 mg/kg/injection, vehicle: carboxymethylcellulose (CMC)): 83 % of control; T/C (dose: 180.0 mg/kg/injection, vehicle: carboxymethylcellulose (CMC)): 70 % of control

Which T/C (dose: 112.0 mg/kg/injection, vehicle: carboxymethylcellulose (CMC)) does the source give for CCOC(=O)Sc1ncnc2nc[nH]c12 here?
The T/C was 13 % of control.

For CN(C)Nc1ncnc2nc[nH]c12, which T/C (dose: 20.0 mg/kg/injection, vehicle: saline) is on record?
Its T/C is 84 % of control.

And the T/C (dose: 40.0 mg/kg/injection, vehicle: saline)?
The T/C was 72 % of control.

And the T/C (dose: 80.0 mg/kg/injection, vehicle: saline)?
Its T/C is 38 % of control.

How did the T/C (dose: 125.0 mg/kg/injection, vehicle: carboxymethylcellulose (CMC)) turn out when COc1ccc(-c2c(CC(=O)O)c3cc(OC)ccc3n2Cc2ccc(Cl)cc2)cc1 was run?
Its T/C is 116 % of control.

What about the T/C (dose: 250.0 mg/kg/injection, vehicle: carboxymethylcellulose (CMC)) of the same compound?
The T/C was 66 % of control.

What about the T/C (dose: 500.0 mg/kg/injection, vehicle: carboxymethylcellulose (CMC)) of the same compound?
Its T/C is 54 % of control.

What about the T/C (dose: 1000.0 mg/kg/injection, vehicle: carboxymethylcellulose (CMC)) of the same compound?
The T/C was 56 % of control.

How did the T/C (dose: 15.0 mg/kg/injection, vehicle: carboxymethylcellulose (CMC)) turn out when CC(=O)Nc1ccc(NC(=O)c2ccc([As](O)O)cc2)cc1 was run?
Its T/C is 89 % of control.

And the T/C [5]?
The T/C was 111 % of control.

And the T/C (dose: 60.0 mg/kg/injection, vehicle: carboxymethylcellulose (CMC))?
The T/C was 85 % of control.

And the T/C (dose: 120.0 mg/kg/injection, vehicle: carboxymethylcellulose (CMC))?
The T/C was 61 % of control and 62 % of control.

What about the T/C (dose: 240.0 mg/kg/injection, vehicle: carboxymethylcellulose (CMC)) of the same compound?
The T/C was 32 % of control.

For CCCn1cnc2c(SCc3ccccc3Cl)nc(N)nc21, which T/C [6] is on record?
Its T/C is 86 % of control.

And the T/C [7]?
Its T/C is 87 % of control.

What about the T/C (dose: 400.0 mg/kg/injection, vehicle: carboxymethylcellulose (CMC)) of the same compound?
Its T/C is 55 % of control.

For NC(N)=N/N=C/C=N/N=C(N)N, which T/C [5] is on record?
The T/C was 81 % of control.

What does the source list for CCN(CC)Cc1cc(Nc2c3ccccc3nc3cc(Cl)ccc23)ccc1O?
T/C (dose: 12.5 mg/kg/injection, vehicle: saline): 78 % of control; T/C [8]: 111 % of control; T/C [9]: 70 % of control

What does the source list for O=S1(=O)CCCO1?
T/C (dose: 40.0 mg/kg/injection, vehicle: carboxymethylcellulose (CMC)): 75 % of control; T/C (dose: 80.0 mg/kg/injection, vehicle: carboxymethylcellulose (CMC)): 76 % of control

Which T/C (dose: 31.0 mg/kg/injection, vehicle: saline) does the source give for C=CCn1c(=O)n(CC=C)c(=O)n(CC=C)c1=O here?
Its T/C is 84 % of control.

What about the T/C [10] of the same compound?
The T/C was 94 % of control.

And the T/C [1]?
Its T/C is 69 % of control.

What about the T/C (dose: 375.0 mg/kg/injection, vehicle: saline) of the same compound?
Its T/C is 31 % of control.

Which results are given for ClCCn1cnc2c(SCc3ccccc3)ncnc21?
T/C [8]: 75 % of control; T/C [9]: 64 % of control; T/C [11]: 56 % of control; T/C [12]: 69 % of control; T/C (dose: 450.0 mg/kg/injection, vehicle: saline): 65 % of control

How did the T/C [13] turn out when S=c1nc[nH]c2c1ncn2C1CCCO1 (stereo not given) was run?
The T/C was 84 % of control.

What about the T/C [8] of the same compound?
The T/C was 85 % of control.

What about the T/C [9] of the same compound?
Its T/C is 62 % of control.

And the T/C [11]?
Its T/C is 30 % of control and 33 % of control.

What does the source list for Nc1nc(SCc2ccccc2Cl)c2ncn(C3OC(CO)C(O)C3O)c2n1 (stereo not given)?
T/C (dose: 12.5 mg/kg/injection, vehicle: carboxymethylcellulose (CMC)): 90 % of control; T/C [14]: 81 % of control; T/C [15]: 61 % of control

What does the source list for CC(C)([NH-])CO.CC(C)([NH-])CO.[Cl][Cd][Cl]?
T/C [16]: 88 % of control; T/C (dose: 5.0 mg/kg/injection, vehicle: carboxymethylcellulose (CMC)): 57 % of control; T/C (dose: 10.0 mg/kg/injection, vehicle: carboxymethylcellulose (CMC)): 25 % of control

ClCCn1cnc2c(SCc3ccccc3Cl)ncnc21 was tested. Which T/C [9] did it give?
The T/C was 72 % of control.

And the T/C [11]?
Its T/C is 56 % of control.

And the T/C [17]?
Its T/C is 35 % of control.

Which results are given for CC1(C)CC(C)(c2ccccc2)c2ccccc21 (stereo not given)?
T/C (dose: 75.0 mg/kg/injection, vehicle: saline): 92 % of control; T/C (dose: 150.0 mg/kg/injection, vehicle: saline): 70 % of control; T/C [12]: 52 % of control

How did the T/C (dose: 6.0 mg/kg/injection, vehicle: carboxymethylcellulose (CMC)) turn out when Nc1nc(SCc2ccccc2Cl)c2[nH]cnc2n1 was run?
Its T/C is 70 % of control.

What about the T/C (dose: 12.0 mg/kg/injection, vehicle: carboxymethylcellulose (CMC)) of the same compound?
Its T/C is 52 % of control.

And the T/C [14]?
The T/C was 54 % of control.

And the T/C [15]?
Its T/C is 43 % of control.

And the T/C [9]?
Its T/C is 32 % of control and 39 % of control.

What about the T/C (dose: 70.0 mg/kg/injection, vehicle: saline) of the same compound?
Its T/C is 41 % of control.

And the T/C (dose: 110.0 mg/kg/injection, vehicle: saline)?
Its T/C is 16 % of control and 33 % of control.

And the T/C (dose: 165.0 mg/kg/injection, vehicle: saline)?
Its T/C is 13 % of control.

CN(C)CCCN1c2ccccc2Sc2ccc(C(F)(F)F)cc21 was tested. Which T/C [13] did it give?
The T/C was 90 % of control.

And the T/C [8]?
Its T/C is 90 % of control.

For O=C(O)c1ccc(-c2ccccc2)cc1, which T/C [7] is on record?
The T/C was 70 % of control.

How did the T/C [16] turn out when CN(C)c1ccc(/C=C\c2ccnc3ccccc23)cc1 was run?
Its T/C is 50 % of control.

What about the T/C (dose: 14.0 mg/kg/injection, vehicle: carboxymethylcellulose (CMC)) of the same compound?
The T/C was 68 % of control.

What about the T/C (dose: 22.0 mg/kg/injection, vehicle: carboxymethylcellulose (CMC)) of the same compound?
Its T/C is 44 % of control.

What about the T/C [15] of the same compound?
Its T/C is 48 % of control.

What about the T/C (dose: 75.0 mg/kg/injection, vehicle: carboxymethylcellulose (CMC)) of the same compound?
The T/C was 27 % of control.

What about the T/C [6] of the same compound?
Its T/C is 67 % of control.

What does the source list for CC(C)CCSc1nc(N)nc2nc[nH]c12?
T/C [10]: 64 % of control; T/C [1]: 75 % of control

CC[C@H]1CN2CCc3cc(OC)c(OC)cc3[C@@H]2C[C@@H]1C[C@H]1NCCc2cc(OC)c(OC)cc21 was tested. Which T/C (dose: 1.0 mg/kg/injection, vehicle: saline) did it give?
The T/C was 82 % of control.

What about the T/C (dose: 2.0 mg/kg/injection, vehicle: saline) of the same compound?
Its T/C is 82 % of control.

With CC(C)Sc1nc(N)nc2nc[nH]c12 as the compound, how does the T/C [8] read?
Its T/C is 71 % of control.

And the T/C [9]?
Its T/C is 83 % of control.

And the T/C [11]?
Its T/C is 76 % of control.

And the T/C [17]?
The T/C was 23 % of control.

What does the source list for CCOC(=O)NC?
T/C [1]: 104 % of control; T/C [2]: 67 % of control; T/C [3]: 59 % of control; T/C [4]: 27 % of control

How did the T/C [10] turn out when Fc1ccc(CSc2ncnc3c2ncn3C2CCCCO2)cc1 (stereo not given) was run?
Its T/C is 81 % of control.

And the T/C [1]?
Its T/C is 71 % of control.

What about the T/C [2] of the same compound?
The T/C was 93 % of control.

And the T/C [3]?
The T/C was 28 % of control.
